Source: article PMC6394990, “Detailed characterization of the solution kinetics and thermodynamics of biotin, biocytin and HABA binding to avidin and streptavidin” (PLoS ONE, 2019)
Several values for one entry are separate records, joined by “and”; a condition that tells them apart may be missing. Identical values can stand only once.

Tests used:
[1] = Intrinsic lifetime, dynamic quantum yield and fraction of non-statically quenched molecules, unbound probe; type: physicochemical; details: for t° (2), intrinsic lifetime of the fluorescence dye: in ns; for 1-S (4) = QY/F, fraction of non-statically quenched molecules / F (3) = Sat/t° / S: unbound dye
[2] = Steady-state anisotropy (rss), unbound probe; type: physicochemical
Procedure: (§1) The lifetimes (τ), steady state anisotropies (rss), time-resolved anisotropies (rt) and quantum yields (QY) of the complexes (at 20 ± 0.1°C and pH 8) were collected with a dye-labeled B7 probe concentration of 20–40 nM and 1040–2080 nM of either protein (AV or SAV) to ensure that only one binding site in the tetramer was filled with a ligand (AB1 filling model).
The rss measurements were collected using the Giblin-Parkhurst modification of the Wampler-Desa method as described previously. The fluorescence signal was detected in a model A-1010 Alphascan fluorimeter (Photon Technologies, Inc., Birmingham, NJ) equipped with an R928 PMT (Hamamatsu, Bridgewater, NJ). The excitation was provided by an Ar^+ ion laser (Coherent Innova 70–4 Argon, Santa Clara, CA) at 488 nm and 5–10 mW of power incident on the sample. […] The fluorimeter G factor was determined using a film polarizer and analyzer with an excitation at 488 nm provided by a xenon arc lamp (model A1010, Photon Technologies Inc, Princeton, NJ). The dissociation reactions of dye-labeled B7 and protein complexes were monitored by fluorescence changes and were also collected in the fluorimeter described above.

[3] = Absorbance and fluorescence emission spectra, unbound probe; type: physicochemical; details: unbound dye
Procedure: as §1
The QY values were obtained by using a reference fluorophore of known quantum yield and were calculated according to Parker and Rees, where the reference dye was fluorescein in 0.1N sodium hydroxide solution [46]. The emission fluorescence scans were collected from 480 nm to 700 nm with the excitation light set at 460 nm provided by the xenon arc lamp described above. These measurements were made on the AB1 complexes at high protein concentration.
Supplementary file pone.0204194.s001.docx: S1 Fig Absorbance spectra of dye-labeled B7 probes and respective complexes with AV and SAV. […] The spectra are normalized to the calculated molar absorptivies. […] The labeled probes and protein concentrations were 1 μM and 10 μM, respectively. (DOCX) Click here for additional data file.
Supplementary file pone.0204194.s002.docx: S2 Fig Fluorescence emission spectra of dye-labeled B7 and respective complexes with AV and SAV. […] The probe and protein concentrations were 20 nM and 1040 nM (AB1 filling model), respectively. (DOCX) Click here for additional data file.

[4] = molecular target: T1, streptavidin (SAV) (Streptomyces avidinii, UniProt P22629); test: Dissociation (displacement/replacement) of dye-labeled biotin complexes by unlabeled B7; type: binding; details: for half-time of displacement: SAV-BcO AB1
T1 construct: purchased Sigma Aldrich (St. Louis, MO)
T1 sequence (P22629 25-183): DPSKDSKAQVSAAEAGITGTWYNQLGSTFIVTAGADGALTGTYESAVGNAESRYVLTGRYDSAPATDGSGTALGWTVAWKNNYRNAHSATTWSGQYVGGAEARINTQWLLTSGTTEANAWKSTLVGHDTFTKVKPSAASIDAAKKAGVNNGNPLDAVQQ
Procedure: Biotin dissociation was determined using labelled biotin (BcO and BFl) displaced by unlabeled biotin using minimally occupied and fully occupied binding sites. In the minimally occupied measurements, SAV is prepared with less than one site on average occupied by labelled biotin (AB1), using 800 nM SAV and 40 nM of BcO or BFl. For saturated SAV-labelled biotin (AB4) complexes, equimolar binding sites and labelled ligand were prepared, 40 nM SAV and 40 nM of BcO or BFl. The AB1 complexes were challenged in displacement experiments with several concentrations of unlabeled B7 (1500 nM, 1750 nM, 2000 nM and 2500 nM) at 20 ± 0.1°C. In AB1, SAV had 760 nM in open sites, therefore the total challenging B7 concentrations were 740 nM, 990 nM, 1240 nM and 1740 nM, respectively. […] The 40 nM AB4 complexes were challenged with unlabeled B7 concentrations of 400 nM (10X) and 1600 nM (40X) at 20 ± 0.1°C. The dissociation reactions of AV complexes were carried out with a preformed complex of 20 nM BFl or BcO and 260 nM AV for a filling model of AB1 and challenged with unlabeled B7 at 2,000 nM.
(§2) The rss measurements were collected using the Giblin-Parkhurst modification of the Wampler-Desa method as described previously. The fluorescence signal was detected in a model A-1010 Alphascan fluorimeter (Photon Technologies, Inc., Birmingham, NJ) equipped with an R928 PMT (Hamamatsu, Bridgewater, NJ). The excitation was provided by an Ar^+ ion laser (Coherent Innova 70–4 Argon, Santa Clara, CA) at 488 nm and 5–10 mW of power incident on the sample. A photoelastic modulator (PEM-80; HINDS International, Inc., Portland, OR) was placed between the laser source and the sample compartment with a retardation level of 1.22π, and the PEM stress axis orientated 45° with respect to the E vector of the laser beam. Two signals were acquired with the PEM alternating between “on” and “off” positions for 10 seconds and the data fitted to a least squared straight line to minimize noise. A minimum of six of these independent measurements were averaged to acquire the rss values. The fluorimeter G factor was determined using a film polarizer and analyzer with an excitation at 488 nm provided by a xenon arc lamp (model A1010, Photon Technologies Inc, Princeton, NJ). The dissociation reactions of dye-labeled B7 and protein complexes were monitored by fluorescence changes and were also collected in the fluorimeter described above.
The dissociation reactions were followed by fluorescence changes, F¯(t) , in the fluorimeter and laser setup described above and tuned to 488 nm under discontinuous excitation to prevent photobleaching distortion. The signal was best fitted to the following dissociation model (Eq 10), in which the dye labeled complex dissociates into the labeled B7 probe (BFl or BcO) and the respective protein (AV or SAV).

[5] = molecular target: T2, avidin (AV) (Gallus gallus, UniProt P02701); test: Steady-state anisotropy (rss), AV complex; type: physicochemical; details: for Steady State Anisotropy rss: AV complex (AB1), 20°C; for AV-increment (%): increase of rss against unbound; for rss, + AV: steady-state anisotropy
T2 construct: purchased Calbiochem (La Jolla, CA)
T2 sequence (P02701 25-152): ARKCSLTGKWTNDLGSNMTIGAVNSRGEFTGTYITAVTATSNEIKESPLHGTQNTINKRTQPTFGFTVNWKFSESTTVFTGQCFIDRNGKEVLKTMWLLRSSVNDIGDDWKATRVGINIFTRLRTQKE
Procedure: as §1, §2

[6] = molecular target: T1, streptavidin (SAV); test: Intrinsic lifetime, dynamic quantum yield and fraction of non-statically quenched molecules, SAV complex; type: physicochemical; details: for 1-S (4) = QY/F, fraction of non-statically quenched molecules / F (3) = Sat/t° / S / t° (2), intrinsic lifetime of the fluorescence dye: complex with SAV
[7] = SAV complex, mono-ionic fluorescein species

| SMILES | t° (2), intrinsic lifetime of the fluorescence dye [1] | 1-S (4) = QY/F, fraction of non-statically quenched molecules [1] | F (3) = Sat/t° [1] | S [1] | rss, Unbound [2] | Abs (nm) [3] | Emission (nm) [3] | Steady State Anisotropy rss [5] | AV-increment (%) [5] | rss, + AV [5] | 1-S (4) = QY/F, fraction of non-statically quenched molecules [6] | F (3) = Sat/t° [6] | S [6] | t° (2), intrinsic lifetime of the fluorescence dye [6] | also measured |
| --- | --- | --- | --- | --- | --- | --- | --- | --- | --- | --- | --- | --- | --- | --- | --- |
| O=C(CCCC[C@@H]1SC[C@@H]2NC(=O)N[C@@H]21)NCCNC(=O)c1ccc(-c2c3ccc(=O)cc-3oc3cc(O)ccc23)c(C(=O)O)c1 [BFl, Biotin-4-fluorescein] | 5.2 ± 0.2 | 0.65 (2×) and 0.65 ± 0.06 | 0.81 ± 0.04 | 0.35 | 0.021 | 494 nm | 530 nm | 0.180 ± 0.003 | 757.1% | 0.18 | 0.14 and 0.14 ± 0.02 | 0.80 ± 0.02 | 0.86 | 4.6 ± 0.1 | release (displacement) of the bound probe ([4]; SAV-BFl complex, AB1, 30°C, challenging B7 1400 nM): 5%; Natural Lifetime τ° ([6]; SAV complex, di-ionic fluorescein species): 4.5 ± 0.1; Fraction of Non-Statically Quenched Dye 1-S [6, 7]: 0.18 ± 0.02; Natural Lifetime τ° [6, 7]: 8.1 ± 0.1 |
| NC(CCCCNC(=O)CCCC[C@@H]1SC[C@@H]2NC(=O)N[C@@H]21)C(=O)NCCCCCNC(=O)c1ccc(-c2c3cc(F)c(=O)cc-3oc3cc(O)c(F)cc23)c(C(=O)O)c1 (stereo partly drawn) [BcO, Oregon green 488 Biocytin] | 4.4 ± 0.1 | 1 and 1.00 ± 0.02 | 0.85 ± 0.02 | 0 | 0.023 | 495 nm | 523 nm | 0.187 ± 0.009 | 713.0% | 0.187 | 0.25 and 0.25 ± 0.02 | 0.83 ± 0.02 | 0.75 | 4.8 ± 0.1 | half-time of displacement ([4]; 20°C, challenging B7 740 nM): 56.6 s; half-time of displacement ([4]; 20°C, challenging B7 1240 nM): 33.9 s; half-time of displacement ([4]; 20°C, challenging B7 1740 nM): 24.2 s; release amplitude of the displacement reaction ([4]; SAV-BcO complex challenged with unlabeled B7, 20°C): ~ 79% and 79 ± 1%; Dynamic Quantum Yield Φ ([6]; SAV complex (AB1)): 0.83 ± 0.02; Fraction of Non-Statically Quenched Dye 1-S ([6]; SAV complex (AB1)): 0.25 ± 0.02; Natural Lifetime τ° ([6]; SAV complex (AB1)): 4.8 ± 0.1 |
